Test results: PubChem BioAssay (NCI)
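Method: 48-hour compound exposure of cells in 96-well plates, five concentrations, linear interpolation of endpoints. Here, GI50 denotes the concentration required for 50% inhibition of growth. At the TGI there is no net growth.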

Legend:
Assay in all cases: NCI tumour cell line growth inhibition, 48 h
U251 CNS = test system: U251 CNS
RPMI-8226 leukemia = test system: RPMI-8226 leukemia
SW-620 colon = test system: SW-620 colon
SK-MEL-28 melanoma = test system: SK-MEL-28 melanoma
MDA-MB-231 breast = test system: MDA-MB-231 breast
MDA-MB-435 = test system: MDA-MB-435
A549 NSCLC = test system: A549 NSCLC
OVCAR-4 ovarian = test system: OVCAR-4 ovarian
HCT-116 colon = test system: HCT-116 colon
EKVX NSCLC = test system: EKVX NSCLC

SMILES	GI50 (U251 CNS) [µM]	TGI (U251 CNS) [µM]	GI50 (RPMI-8226 leukemia) [µM]	TGI (RPMI-8226 leukemia) [µM]	GI50 (SW-620 colon) [µM]	TGI (SW-620 colon) [µM]	GI50 (SK-MEL-28 melanoma) [µM]	TGI (SK-MEL-28 melanoma) [µM]	GI50 (MDA-MB-231 breast) [µM]	TGI (MDA-MB-231 breast) [µM]	GI50 (MDA-MB-435) [µM]	TGI (MDA-MB-435) [µM]	GI50 (A549 NSCLC) [µM]	TGI (A549 NSCLC) [µM]	GI50 (OVCAR-4 ovarian) [µM]	TGI (OVCAR-4 ovarian) [µM]	GI50 (HCT-116 colon) [µM]	TGI (HCT-116 colon) [µM]	GI50 (EKVX NSCLC) [µM]	TGI (EKVX NSCLC) [µM]
O=C1C=C(N2CC2)c2ccccc2C1=O	1.55	3.01	1.81	5.13	1.34	2.92	1.77	3.17	2.05	5.11	0.778	2.23	2.07	4.7	1.48	2.8	1.47	2.9	–	–
COc1ccc(/C=C/c2nc(N3CCOCC3)c3cc(F)c(F)cc3n2)cc1OC	5.9	> 100	2.7	> 100	6.1	> 100	5.53	> 100	6.56	> 100	3.18	> 100	5.87	> 100	1.43	> 100	3.53	> 100	–	–
COc1ccc(C(=O)Nc2ncc(Cc3ccc(F)cc3)s2)cc1	0.0686	> 89.1	0.0373	–	0.0449	> 100	2.16	> 100	0.2	76.6	–	–	0.0678	> 100	1.38	> 100	0.0519	> 100	0.383	> 100
COc1cc(C2[C@H]3C(=O)N(c4ccc(Cc5ccc(N6C(=O)[C@@H]7ON(c8ccccc8)C(c8cc(OC)c(OC)c(OC)c8)[C@@H]7C6=O)cc5)cc4)C(=O)[C@H]3ON2c2ccccc2)cc(OC)c1OC (stereo partly drawn)	–	> 100	–	> 100	–	> 100	–	> 100	–	–	–	–	–	> 100	–	> 100	–	> 100	–	> 100
O=C1c2cnccc2Cc2cccc3c2N1c1ccccc1S3	–	34	–	88.1	–	97.9	–	78.2	–	–	–	–	–	> 100	–	68.4	–	33.8	–	–
Nc1c(C(=O)Nc2cccc3ccccc23)sc2nc3c(cc12)CCCC3	0.781	> 100	2.77	> 100	0.552	> 100	19.2	> 100	5.23	> 100	–	–	3.33	> 100	1.11	> 100	0.8	> 100	4.47	> 100
COC(=O)Nc1nc2c(OC)c(OC)c(OC)cc2[nH]1	21.1	> 100	35.6	> 100	5.8	> 100	52.4	> 100	18.7	> 100	2.09	5.71	14.8	> 100	64.2	> 100	10.1	> 100	–	–
CC(=O)OCCC/C(=C\c1ccc2ccccc2c1)[N+](=O)[O-]	–	–	1.55	3.72	1.44	3.27	1.26	2.84	2.02	4.59	1.53	3.77	3.41	31.2	1.76	3.39	1.61	3.3	–	–
C(=C1\CCC/C(=C/c2ccccc2)C1=NNc1ccccc1)/c1ccccc1	–	> 100	–	> 100	–	> 100	–	> 100	–	–	–	–	–	> 100	–	> 100	–	> 100	–	> 100
COc1ccc(-c2cc(-c3ccccc3)c(C#N)c(=O)[nH]2)cc1	–	> 100	–	> 100	–	> 100	–	> 100	–	–	–	–	–	> 100	–	> 100	–	> 100	–	> 100
CC1(C)CCc2cc3c(cc2O1)OC(C)(C)C1c2c(ccc4c2CCC(C)(C)O4)OC31 (stereo not drawn)	–	> 100	–	> 100	–	> 100	–	–	–	–	–	–	–	> 100	–	> 100	–	> 100	–	> 100
Cn1cc2ccccc2c1-c1nc(F)nc(Oc2ccc3c(c2)CC[C@@H]2C3CC[C@]3(C)C(O)CCC23)n1 (stereo partly drawn)	–	28	–	–	–	43.5	–	33.2	–	–	–	–	–	48.9	–	28.5	–	35.8	–	–
CSc1nc2c(nc(N)n2C2OCC(O)C(O)C2O)c(=O)[nH]1 (stereo not drawn)	–	> 100	–	–	–	> 100	–	> 100	–	–	–	–	–	> 100	–	> 100	–	> 100	–	> 100
O=C1c2c(c3c4ccccc4n4c3c3c2c2ccccc2n3C/C=C\C4)C(=O)N1Cc1ccccc1	–	> 100	–	> 100	–	> 100	–	> 100	–	–	–	–	–	> 100	–	–	–	> 100	–	> 100
Cn1c(=O)c(C(c2ccccc2)c2c(O)c3ccccc3n(C)c2=O)c(O)c2ccccc21	–	> 100	–	> 100	–	> 100	–	> 100	–	–	–	–	–	> 100	–	> 100	–	> 100	–	> 100
COc1cc(C2c3cc4c(cc3C3OC(=O)C2C3CO)OCO4)cc(OC)c1OC (stereo not drawn)	0.0354	> 100	0.0282	> 100	0.0244	> 100	8.68	> 100	0.03	0.0901	0.01	0.0374	0.0294	> 100	0.0446	> 100	0.0191	> 100	–	–
CC(C)O/C=C1\C(=O)C2(SCCS2)[C@H]2CCCC[C@@H]12	–	> 100	–	81	–	> 100	–	> 100	–	–	–	–	–	> 100	–	> 100	–	> 100	–	–
CC1=C(C(=O)Nc2ccccc2C)C(c2ccc(N(C)C)cc2)C(C(=O)Nc2ccccc2C)=C(C)N1	–	> 100	–	> 100	–	> 100	–	> 100	–	–	–	–	–	> 100	–	–	–	> 100	–	> 100
COc1ccc2oc(-c3ccncc3)cc(=O)c2c1	–	> 100	–	> 100	–	–	–	> 100	–	–	–	–	–	–	–	> 100	–	> 100	–	–
